Assay [1] addresses T1, KRas G12D (Homo sapiens (Human), UniProt P01116, G12D). Put plainly: KRas G12D Surface Plasmon Resonance (SPR) Binding Assay. Conditions: Biacore T200, immobilized biotinylated KRAS protein, 1:1 binding model. As to the method: Briefly, 1 L of 1.05× HBS-Mg buffer (262.5 mM Bioultra Hepes, pH 7.5, 157.5 mM NaCl, 105 mM MgCl2, 0.525 mM TCEP, 0.0305% Brij-35) was prepared and filter sterilized using a 0.22 μm bottle top filter. Approximately 50 mL of 1.05× HBS-Mg buffer was removed and saved for future dilutions. A 50 mL aliquot of DMSO (Sigma Aldrich DMSO Lot. #SHBK2079) was added and continued to stir for 10 minutes, creating the final 1.0× HBS-Mg buffer (250 mM Bioultra Hepes pH 7.5, 150 mM NaCl, 100 mM MgCl2, 0.5mM TCEP, 0.03% Brij-35).
Biacore T200 instrument was primed using 1.0× HBS-Mg buffer before docking a GE Streptavidin (SA) chip and then primed two additional times prior to beginning the immobilization step. All immobilized protein mixtures were created using 3-5mg/mL Biotinylated Avidin-tagged KRAS protein using the following immobilization settings: SA chip type, 1 flow cells per cycle, 720 second contact time, and 5 ul/min flow rate. Normalization of the detector was also performed during the immobilization step using the GE Biallormalize solution.
All compounds were diluted to 10 mM in 100% DMSO prior to being diluted 20× in 1.05× buffer. […] Data evaluation was performed using the Biacore T200 Evaluation software and data fit to 1:1 binding model.
Background: In SPR one partner is held on a chip, and binding of the other changes the refractive index at the surface.
Target sequence in this assay (P01116-2 other isoform, or with tags, fused parts or gaps G12D): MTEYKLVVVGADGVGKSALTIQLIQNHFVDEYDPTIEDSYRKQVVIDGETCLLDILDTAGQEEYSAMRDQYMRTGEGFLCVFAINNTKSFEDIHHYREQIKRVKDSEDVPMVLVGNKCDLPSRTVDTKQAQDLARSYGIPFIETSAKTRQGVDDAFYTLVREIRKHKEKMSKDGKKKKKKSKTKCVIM

Assay [2] addresses T1, KRas G12D. Kind of assay: KRas G12D Binding Assay (TR-FRET displacement). The settings on record: TR-FRET displacement of Cy5 labelled tracer, GDP-loaded KRAS G12D, 60 minute incubation at 22° C. As to the method:
After a 60 minute incubation at 22° C., the reaction was measured using a PerkinElmer EnVision multimode plate reader via TR-FRET dual wavelength detection, and the percent of control (POC) calculated using a ratiometric emission factor. […] The POC values were fit to a 4-parameter logistic curve and the IC50 value was determined as the concentration where the curve crosses 50 POC.
A general note: TR-FRET usually uses a lanthanide donor and a delayed reading to cut background.
Target sequence in this assay (P01116 other isoform, or with tags, fused parts or gaps G12D): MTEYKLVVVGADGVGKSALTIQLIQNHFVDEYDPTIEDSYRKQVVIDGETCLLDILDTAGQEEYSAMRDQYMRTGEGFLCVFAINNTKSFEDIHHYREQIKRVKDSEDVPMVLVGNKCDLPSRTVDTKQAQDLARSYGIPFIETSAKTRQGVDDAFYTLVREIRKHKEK

The subject of assay [3] is KRas G12D-mediated phosphorylation of ERK. Put plainly: Inhibition of KRas G12D-mediated phosphorylation of ERK in AGS cells. The settings on record: Homo sapiens; AGS cells expressing G12D, 3 hours, phospho-ERK normalized to GAPDH. In kind it is cell-based. The essentials:
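Fixed, methanol-permeabilized; phospho-ERK (Thr202/Tyr204) by in-cell immunofluorescence normalized to GAPDH. Percent of DMSO control, IC50 by 4-parameter fit.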

In the case of `OCC(COc1nc(N2C[C@H]3CC[C@@H](C2)N3)c2cnc(-c3cccc4cccc(Cl)c34)c(F)c2n1)c1cccnc1` (stereo partly drawn) [Example 59, 3-((4-((1R,5S)-3,8-diazabicyclo[3.2.1]octan-3-yl)-7-(8-chloronaphthalen-1-yl)-8-fluoropyrido[4,3-d]pyrimidin-2-yl)oxy)-2-(pyridin-3-yl)propan-1-ol], the Kd (in general, a measure of binding affinity in units of concentration) at KRas G12D [1] was found to be 1.12 µM. Also, the IC50 (commonly the point on the concentration scale where inhibition reaches its midpoint) on KRas G12D [2] was found to be 0.946 µM.
Turning to `Cn1c(CCOc2nc(N3C[C@H]4CC[C@@H](C3)N4)c3cnc(-c4cc(O)cc5ccccc45)c(F)c3n2)nc2ccccc21` [Example 30, 4-(4-((1R,5S)-3,8-diazabicyclo[3.2.1]octan-3-yl)-8-fluoro-2-(2-(1-methyl-1H-benzo[d]imidazol-2-yl)ethoxy)pyrido[4,3-d]pyrimidin-7-yl)naphthalen-2-ol], the Kd on KRas G12D [1] worked out at 0.18 µM. Besides, the IC50 in assay [3] was determined as 9.6 µM; on KRas G12D [2], 0.418 µM.
With `OC[C@@H](O)COc1nc(N2C[C@H]3CC[C@@H](C2)N3)c2cnc(-c3cccc4cccc(Cl)c34)c(F)c2n1` [Example 56, (R)-3-((4-((1R,5S)-3,8-diazabicyclo[3.2.1]octan-3-yl)-7-(8-chloronaphthalen-1-yl)-8-fluoropyrido[4,3-d]pyrimidin-2-yl)oxy)propane-1,2-diol], the Kd on KRas G12D [1] worked out at 5.17 µM. This compound also registered an IC50 at KRas G12D [2] of 5.92 µM.
On KRas G12D [1], `CN1CCC[C@H]1COc1nc(N2C[C@H]3CC[C@@H](C2)N3)c2cnc(-c3cccc4cccc(CCC#N)c34)c(F)c2n1` [Example 117, 3-(8-(4-((1R,5S)-3,8-diazabicyclo[3.2.1]octan-3-yl)-8-fluoro-2-(((S)-1-methylpyrrolidin-2-yl)methoxy)pyrido[4,3-d]pyrimidin-7-yl)naphthalen-1-yl)propanenitrile bis(2,2,2-trifluoroacetate)] had a Kd of 1 µM. On KRas G12D [2], the IC50 amounted to 0.731 µM.
On KRas G12D [1], `Fc1c(-c2cncc3cccc(Cl)c23)ncc2c(N3C[C@H]4CC[C@@H](C3)N4)nc(OCC34CCCN3CCC4)nc12` [Example 33, 4-((1R,5S)-3,8-diazabicyclo[3.2.1]octan-3-yl)-7-(5-chloroisoquinolin-4-yl)-8-fluoro-2-((tetrahydro-1H-pyrrolizin-7a(5H)-yl)methoxy)pyrido[4,3-d]pyrimidine bis(2,2,2-trifluoroacetate)] yielded a Kd of 0.0717 µM. Besides, the IC50 was determined as 2.05 µM in assay [3] and 0.0211 µM at KRas G12D [2].
In the case of `OCC(O)CCOc1nc(N2C[C@H]3CC[C@@H](C2)N3)c2cnc(-c3cccc4cccc(Cl)c34)c(F)c2n1` (stereo partly drawn) [Example 57, 4-((4-((1R,5S)-3,8-diazabicyclo[3.2.1]octan-3-yl)-7-(8-chloronaphthalen-1-yl)-8-fluoropyrido[4,3-d]pyrimidin-2-yl)oxy)butane-1,2-diol], the Kd on KRas G12D [1] is greater than 1000 µM. Besides, the IC50 on KRas G12D [2] was 7.29 µM.
As to `Oc1cc(-c2ncc3c(N4C[C@H]5CC[C@@H](C4)N5)nc(OCCCN4C[C@@H]5C[C@H]4CO5)nc3c2F)c2ccccc2c1` [Example 24, 4-(2-(3-((1S,4S)-2-oxa-5-azabicyclo[2.2.1]heptan-5-yl)propoxy)-4-((1R,5S)-3,8-diazabicyclo[3.2.1]octan-3-yl)-8-fluoropyrido[4,3-d]pyrimidin-7-yl)naphthalen-2-ol], the Kd at KRas G12D [1] was found to be 0.005 µM. In addition, the IC50 in assay [3] came out at 2.89 µM; at KRas G12D [2] it was 0.0079 µM.
With `Oc1ccc(SC(F)(F)F)c(-c2ncc3c(N4CC5CCC(C4)N5)nc(OC[C@@]45CCCN4C[C@H](F)C5)nc3c2F)c1` (racemic) [Example 386, 3-(4-((1R,5S)-3,8-diazabicyclo[3.2.1]octan-3-yl)-8-fluoro-2-((2-fluorotetrahydro-1H-pyrrolizin-7a(5H)-yl)methoxy)pyrido[4,3-d]pyrimidin-7-yl)-4-((trifluoromethyl)thio)phenol (racemic, trans)], the 50% inhibitory concentration (IC50) was 0.32 µM in assay [3] and 0.002 µM on KRas G12D [2].
For the compound `O[C@@H]1C[C@@H]2CN(c3nc(OCC45CCCN4CCC5)nc4c(F)c(-c5cccc6cccc(Cl)c56)ncc34)C[C@H]1N2` [Example 49, (1R,5R,6R)-3-(7-(8-chloronaphthalen-1-yl)-8-fluoro-2-((tetrahydro-1H-pyrrolizin-7a(5H)-yl)methoxy)pyrido[4,3-d]pyrimidin-4-yl)-3,8-diazabicyclo[3.2.1]octan-6-ol], binding on KRas G12D [1] was characterised by a dissociation constant (Kd) of 0.0004 µM. The IC50 in assay [3] amounted to 2.12 µM; at KRas G12D [2] it was 0.0059 µM.
`Oc1cc(-c2ncc3c(N4C[C@H]5CC[C@@H](C4)N5)nc(OCCc4ccccc4F)nc3c2F)c2ccccc2c1` [Example 67, 4-(4-((1R,5S)-3,8-diazabicyclo[3.2.1]octan-3-yl)-8-fluoro-2-(2-fluorophenethoxy)pyrido[4,3-d]pyrimidin-7-yl)naphthalen-2-ol] returned a Kd on KRas G12D [1] of 1.15 µM. The IC50 at KRas G12D [2] stood at 1.25 µM.
`COc1cc(-c2ncc3c(N4CC5CCC(C4)N5)nc(OC[C@@]45CCCN4C[C@H](F)C5)nc3c2F)c2ccccc2c1` (racemic) [Example 385, 4-((1R,5S)-3,8-diazabicyclo[3.2.1]octan-3-yl)-8-fluoro-2-((2-fluorotetrahydro-1H-pyrrolizin-7a(5H)-yl)methoxy)-7-(3-methoxynaphthalen-1-yl)pyrido[4,3-d]pyrimidine (racemic, trans)]: the IC50 was greater than 16.7 µM in assay [3] and 3.08 µM on KRas G12D [2].
For the compound `Oc1cc(-c2ncc3c(N4C[C@H]5CC[C@@H](C4)N5)nc(OCCc4ncccn4)nc3c2F)c2ccccc2c1` [Example 7, 4-(4-((1R,5S)-3,8-diazabicyclo[3.2.1]octan-3-yl)-8-fluoro-2-(2-(pyrimidin-2-yl)ethoxy)pyrido[4,3-d]pyrimidin-7-yl)naphthalen-2-ol], at KRas G12D [1], the Kd stood at 0.464 µM. On KRas G12D [2], the IC50 was 1.87 µM.
`COC(=O)C12CCC(CN(c3nc(OC[C@@H]4CCCN4C)nc4c(F)c(-c5cc(O)cc6ccccc56)ncc34)C1)N2` (stereo partly drawn) [Example 158, methyl 3-(8-fluoro-7-(3-hydroxynaphthalen-1-yl)-2-(((S)-1-methylpyrrolidin-2-yl)methoxy)pyrido[4,3-d]pyrimidin-4-yl)-3,8-diazabicyclo[3.2.1]octane-1-carboxylate bis(2,2,2-trifluoroacetate)] had a Kd at KRas G12D [1] of 0.33 µM. The figures for the IC50 (in assay [3]; on KRas G12D [2]) were 4.22 µM and 0.0737 µM, respectively.
As to `Nc1ccc(Cl)c(F)c1-c1ncc2c(N3CC4CCC(C3)N4)nc(OC[C@@]34CCCN3C[C@H](F)C4)nc2c1F` (racemic) [Example 380, 2-(4-((1R,5S)-3,8-diazabicyclo[3.2.1]octan-3-yl)-8-fluoro-2-((2-fluorotetrahydro-1H-pyrrolizin-7a(5H)-yl)methoxy)pyrido[4,3-d]pyrimidin-7-yl)-4-chloro-3-fluoroaniline bis(2,2,2-trifluoroacetate) (racemic, trans)], the results for the IC50 (in assay [3]; on KRas G12D [2]) were greater than 16.7 µM and 0.0657 µM, respectively.
In the case of `FCC1CCC2(COc3nc(N4C[C@H]5CC[C@@H](C4)N5)c4cnc(-c5cccc6cccc(Cl)c56)c(F)c4n3)CCCN12` (stereo partly drawn) [Example 347, 4-((1R,5S)-3,8-diazabicyclo[3.2.1]octan-3-yl)-7-(8-chloronaphthalen-1-yl)-8-fluoro-2-((3-(fluoromethyl)tetrahydro-1H-pyrrolizin-7a(5H)-yl)methoxy)pyrido[4,3-d]pyrimidine], the results for the IC50 (in assay [3]; at KRas G12D [2]) were 0.459 µM and 0.0021 µM, respectively.
In the same order, the values of `C#Cc1c(F)ccc2cc(O)cc(-c3ncc4c(N5CC6CCC(C5)N6)nc(OC[C@]56CCCN5[C@@H](COC(=O)N(C)C)CC6)nc4c3F)c12` [Example 440, ((3R,7aR)-7a-(((4-((1R,5S)-3,8-diazabicyclo[3.2.1]octan-3-yl)-7-(8-ethynyl-7-fluoro-3-hydroxynaphthalen-1-yl)-8-fluoropyrido[4,3-d]pyrimidin-2-yl)oxy)methyl)hexahydro-1H-pyrrolizin-3-yl)methyl dimethyl carbamate] are 0.0084 µM and 0.0008 µM.
The matching figures for `OCC1CCC2(COc3nc(N4C[C@H]5CC[C@@H](C4)N5)c4cnc(-c5cccc6cccc(Cl)c56)c(F)c4n3)CCCN12` (stereo partly drawn) [Example 135, (7a-(((4-((1R,5S)-3,8-diazabicyclo[3.2.1]octan-3-yl)-7-(8-chloronaphthalen-1-yl)-8-fluoropyrido[4,3-d]pyrimidin-2-yl)oxy)methyl)hexahydro-1H-pyrrolizin-3-yl)methanol]: 4.82 µM and 0.0021 µM.
Consider `[2H]C#Cc1cccc2cccc(-c3ncc4c(N5C[C@H]6CC[C@@H](C5)N6)nc(OCC56CCCN5CCC6)nc4c3F)c12` [Example 278, 4-((1R,5S)-3,8-diazabicyclo[3.2.1]octan-3-yl)-7-(8-(ethynyl-d)naphthalen-1-yl)-8-fluoro-2-((tetrahydro-1H-pyrrolizin-7a(5H)-yl)methoxy)pyrido[4,3-d]pyrimidine], for which the results for the IC50 (in assay [3]; on KRas G12D [2]) were 0.104 µM and 0.0007 µM, respectively.

For the origin of these results see patent US11453683B1, “KRas G12D inhibitors” (Mirati Therapeutics, Inc., priority 2019, dated 2022).
